# “Also recorded” adds a separate entry of the source.
# Legend:
# [1] = test system: NIH3T3 cells that stably express CxxC-EGFP; experiment: CxxC-EGFP reporter dot formation in NIH3T3 cells; type: cell-based, mouse; settings: 5 μM for 72 hours
# [2] = test system: paternal DNA demethylation; experiment: chemical injection into oocytes, paternal DNA demethylation; type: cell-based, mouse; settings: approximately 10 pl of 10 μM in ethanol injected; final concentration estimated 0.4 μM
# Method: For chemical injection, approximately 10 pl of 3,5-Di-tert-butyltoluene and butylated hydroxytoluence (Sigma Aldrich) at the concentration of 10 μM in ethanol were injected with H3.3-mRFP1 mRNA. The final chemical concentration is estimated as
# 0.4 μM based on an estimated mouse oocyte volume of 270 pl. The final estimated ethanol concentration is about 4%. For determination of knockdown efficiency, RNA isolated from 10-20 zygotes at PN4-5 stage was used for reverse transcription using the SuperScript III Cell Direct cDNA synthesis kit (Invitrogen) followed by quantitative PCR (qPCR) using SYBR GreenER (Invitrogen). Results were normalized with 18S rRNA as a standard.
Structure (SMILES),number and intensity of GFP bright dots (nuclear dot-formation of CxxC probe) [1],paternal DNA demethylation after chemical injection [2]
"Nc1ncn([C@H]2C[C@H](O)[C@@H](CO)O2)c(=O)n1 [5-Aza-dC, 5-Aza-2′ deoxycytidine]",clear increase; also recorded: Enhanced nuclear dot-formation,–
Cc1cc(C(C)(C)C)c(O)c(C(C)(C)C)c1 [butylated hydroxytoluene],–,blocked DNA demethylation
